{"source": "ChEMBL document CHEMBL3120081", "about": "“Imidazopyridazine hepatitis C virus polymerase inhibitors. Structure-activity relationship studies and the discovery of a novel, traceless prodrug mechanism” (J Med Chem, 2014)", "key": {"[1]": {"test": "Cmax in CD rat at 300 mg/kg by LC/MS/MS analysis", "assay_type": "ADME, organism-based", "parameters": "dose 300 mg/kg", "conditions": "in vivo"}, "[2]": {"test": "Cytotoxicity against human MT4 cells after 48 hrs by WST assay", "assay_type": "cell-based"}, "[3]": {"test": "AUC in CD rat at 30 mg/kg by LC/MS/MS analysis", "assay_type": "ADME, organism-based", "parameters": "dose 30 mg/kg", "conditions": "plasma"}, "[4]": {"test": "AUC in CD rat at 100 mg/kg by LC/MS/MS analysis", "assay_type": "ADME, organism-based", "parameters": "dose 100 mg/kg", "conditions": "plasma"}, "Hepatitis C virus [5]": {"system": "Hepatitis C virus", "test": "Antiviral activity against Hepatitis C virus genotype 1b infected in human HuH7 cells after 48 hrs by luciferase reporter gene assay", "assay_type": "functional, organism-based, Hepacivirus hominis", "conditions": "Huh-7, 48 h"}, "[6]": {"test": "AUC in CD rat at 1 mg/kg, po by LC/MS/MS analysis", "assay_type": "ADME, organism-based", "parameters": "dose 1 mg/kg, route oral", "conditions": "plasma"}, "[7]": {"test": "Plasma protein binding in human at 5 uM after 4 hrs by rapid equilibrium dialysis technique", "assay_type": "ADME, cell-free", "conditions": "read-out: PPB (converted)"}, "[8]": {"test": "Cmax in CD rat at 10 mg/kg by LC/MS/MS analysis", "assay_type": "ADME, organism-based", "parameters": "dose 10 mg/kg", "conditions": "in vivo"}, "[9]": {"test": "Clearance in CD rat at 0.5 mg/kg, iv by LC/MS/MS analysis", "assay_type": "ADME, organism-based", "parameters": "dose 0.5 mg/kg, route intravenous", "conditions": "in vivo"}, "Hepatitis C virus [10]": {"system": "Hepatitis C virus", "test": "Antiviral activity against Hepatitis C virus genotype 1a infected in human HuH7 cells after 48 hrs by luciferase reporter gene assay", "assay_type": "functional, organism-based, Hepacivirus hominis", "conditions": "subtype 1a, Huh-7, 48 h"}, "[11]": {"test": "Aqueous solubility of the compound at pH 6.8", "assay_type": "physicochemical"}, "[12]": {"test": "Oral bioavailability in beagle dog at 1 mg/kg by LC/MS/MS analysis", "assay_type": "ADME, organism-based, Canis lupus familiaris", "conditions": "in vivo"}, "[13]": {"test": "Clearance in beagle dog at 1 mg/kg, iv by LC/MS/MS analysis", "assay_type": "ADME, organism-based, Canis lupus familiaris", "parameters": "dose 1 mg/kg, route intravenous", "conditions": "in vivo"}, "[14]": {"test": "Oral bioavailability in CD rat at 1 mg/kg by LC/MS/MS analysis", "assay_type": "ADME, organism-based", "conditions": "in vivo"}, "[15]": {"test": "Intrinsic clearance in CD rat microsomes", "assay_type": "ADME, Microsome"}, "[16]": {"test": "Volume of distribution in beagle dog at 1 mg/kg, iv by LC/MS/MS analysis", "assay_type": "ADME, organism-based, Canis lupus familiaris", "parameters": "dose 1 mg/kg, route intravenous", "conditions": "in vivo"}, "[17]": {"test": "Cytotoxicity against human HepG2 cells after 48 hrs by WST assay", "assay_type": "cell-based"}, "[18]": {"test": "Inhibition of Hepatitis C virus genotype 1b NS5B", "parameters": "species or system Hepatitis C virus subtype 1b"}, "[19]": {"test": "Half life in CD rat at 0.5 mg/kg, iv by LC/MS/MS analysis", "assay_type": "ADME, organism-based", "parameters": "dose 0.5 mg/kg, route intravenous", "conditions": "in vivo"}, "[20]": {"test": "Cmax in CD rat at 100 mg/kg by LC/MS/MS analysis", "assay_type": "ADME, organism-based", "parameters": "dose 100 mg/kg", "conditions": "in vivo"}, "[21]": {"test": "Cmax in CD rat at 30 mg/kg by LC/MS/MS analysis", "assay_type": "ADME, organism-based", "parameters": "dose 30 mg/kg", "conditions": "in vivo"}, "[22]": {"test": "AUC in CD rat at 300 mg/kg by LC/MS/MS analysis", "assay_type": "ADME, organism-based", "parameters": "dose 300 mg/kg", "conditions": "plasma"}, "[23]": {"test": "Cytotoxicity against human HuH7 cells after 48 hrs by WST assay", "assay_type": "cell-based, Huh-7"}, "[24]": {"test": "Inhibition of Hepatitis C virus genotype 1b NS3", "parameters": "species or system Hepatitis C virus subtype 1b"}, "[25]": {"test": "Volume of distribution in CD rat at 0.5 mg/kg, iv by LC/MS/MS analysis", "assay_type": "ADME, organism-based", "parameters": "dose 0.5 mg/kg, route intravenous", "conditions": "in vivo"}, "[26]": {"biological_target": "Voltage-gated inwardly rectifying potassium channel KCNH2 (Homo sapiens, UniProt Q12809)", "sequence (Q12809 whole entry)": "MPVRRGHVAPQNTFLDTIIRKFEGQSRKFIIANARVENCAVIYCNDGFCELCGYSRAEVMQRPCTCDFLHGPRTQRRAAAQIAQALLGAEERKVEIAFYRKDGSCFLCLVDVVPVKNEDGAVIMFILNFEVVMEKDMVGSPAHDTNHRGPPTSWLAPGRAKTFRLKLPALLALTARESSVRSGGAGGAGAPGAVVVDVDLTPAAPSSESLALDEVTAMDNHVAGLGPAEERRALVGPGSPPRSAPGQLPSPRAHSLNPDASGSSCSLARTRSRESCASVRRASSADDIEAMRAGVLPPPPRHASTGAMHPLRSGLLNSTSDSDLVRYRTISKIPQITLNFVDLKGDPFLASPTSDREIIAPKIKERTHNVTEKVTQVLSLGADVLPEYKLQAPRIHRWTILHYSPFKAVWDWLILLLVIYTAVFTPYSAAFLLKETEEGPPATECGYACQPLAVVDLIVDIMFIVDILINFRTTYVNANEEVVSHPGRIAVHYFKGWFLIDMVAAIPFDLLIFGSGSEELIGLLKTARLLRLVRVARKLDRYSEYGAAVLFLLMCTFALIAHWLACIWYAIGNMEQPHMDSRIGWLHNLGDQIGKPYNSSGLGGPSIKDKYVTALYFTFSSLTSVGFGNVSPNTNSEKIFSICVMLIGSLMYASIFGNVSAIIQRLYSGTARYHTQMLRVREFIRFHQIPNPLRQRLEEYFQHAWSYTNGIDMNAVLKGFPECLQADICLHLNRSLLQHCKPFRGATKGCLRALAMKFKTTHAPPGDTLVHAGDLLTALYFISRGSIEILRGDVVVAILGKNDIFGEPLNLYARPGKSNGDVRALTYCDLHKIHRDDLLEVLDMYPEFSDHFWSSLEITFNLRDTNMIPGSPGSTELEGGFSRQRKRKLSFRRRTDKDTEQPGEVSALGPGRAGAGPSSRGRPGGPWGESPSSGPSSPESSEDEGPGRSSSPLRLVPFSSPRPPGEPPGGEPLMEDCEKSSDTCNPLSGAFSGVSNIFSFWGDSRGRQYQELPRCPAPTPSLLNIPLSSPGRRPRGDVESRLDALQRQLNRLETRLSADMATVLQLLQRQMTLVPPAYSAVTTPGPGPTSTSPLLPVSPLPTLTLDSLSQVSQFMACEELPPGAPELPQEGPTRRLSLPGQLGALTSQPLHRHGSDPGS", "test": "Inhibition of human ERG expressed in HEK293 cells", "assay_type": "cell-based"}, "[27]": {"test": "AUC in CD rat at 10 mg/kg by LC/MS/MS analysis", "assay_type": "ADME, organism-based", "parameters": "dose 10 mg/kg", "conditions": "plasma"}, "[28]": {"test": "AUC in beagle dog at 1 mg/kg, po by LC/MS/MS analysis", "assay_type": "ADME, organism-based, Canis lupus familiaris", "parameters": "dose 1 mg/kg, route oral", "conditions": "plasma"}, "[29]": {"test": "Half life in beagle dog at 1 mg/kg, iv by LC/MS/MS analysis", "assay_type": "ADME, organism-based, Canis lupus familiaris", "parameters": "dose 1 mg/kg, route intravenous", "conditions": "in vivo"}, "[30]": {"test": "Intrinsic clearance in beagle dog microsomes", "assay_type": "ADME, Canis lupus familiaris, Microsome"}}}
{"molecule": "Fc1cccc(-c2nc3cnn(Cc4cc(-c5ccc(C(F)(F)F)cc5C(F)(F)F)no4)cc-3n2)c1F", "values": [{"measurement": "Cmax", "setting": "[1]", "result": 2900, "unit": "ng/mL"}, {"measurement": "CC50 at 48 h", "setting": "[2]", "result": "> 50", "unit": "µM"}, {"measurement": "AUC", "setting": "[3]", "result": 98000, "unit": "ng·h/mL"}, {"measurement": "AUC", "setting": "[4]", "result": 102000, "unit": "ng·h/mL"}, {"measurement": "EC50", "setting": "Hepatitis C virus [5]", "result": 0.016, "unit": "µM"}, {"measurement": "AUC", "setting": "[6]", "result": 6300, "unit": "ng·h/mL"}, {"measurement": "fraction unbound at 4 h, 5 µM", "setting": "[7]", "result": 0.002}, {"measurement": "Cmax", "setting": "[8]", "result": 1900, "unit": "ng/mL"}, {"measurement": "clearance", "setting": "[9]", "result": 3, "unit": "mL/min/kg"}, {"measurement": "EC50", "setting": "Hepatitis C virus [10]", "result": 0.12, "unit": "µM"}, {"measurement": "solubility", "setting": "[11]", "result": "< 0.01", "unit": "µg/mL"}, {"measurement": "bioavailability", "setting": "[12]", "result": 18.8, "unit": "%"}, {"measurement": "clearance", "setting": "[13]", "result": 2.7, "unit": "mL/min/kg"}, {"measurement": "bioavailability", "setting": "[14]", "result": 109, "unit": "%"}, {"measurement": "CLint scaled", "setting": "[15]", "result": "< 10", "unit": "mL/min/kg"}, {"measurement": "Vd", "setting": "[16]", "result": 0.83, "unit": "L/kg"}, {"measurement": "CC50 at 48 h", "setting": "[17]", "result": "> 50", "unit": "µM"}, {"measurement": "IC50", "setting": "[18]", "result": "> 50", "unit": "µM"}, {"measurement": "half-life", "setting": "[19]", "result": 3.1, "unit": "h"}, {"measurement": "Cmax", "setting": "[20]", "result": 7400, "unit": "ng/mL"}, {"measurement": "Cmax", "setting": "[21]", "result": 7200, "unit": "ng/mL"}, {"measurement": "AUC", "setting": "[22]", "result": 31000, "unit": "ng·h/mL"}, {"measurement": "CC50 at 48 h", "setting": "[23]", "result": "> 50", "unit": "µM"}, {"measurement": "IC50", "setting": "[24]", "result": "> 50", "unit": "µM"}, {"measurement": "Vd", "setting": "[25]", "result": 0.57, "unit": "L/kg"}, {"measurement": "IC50", "setting": "[26]", "result": "> 50.1", "unit": "µM"}, {"measurement": "AUC", "setting": "[27]", "result": 25000, "unit": "ng·h/mL"}, {"measurement": "AUC", "setting": "[28]", "result": 2000, "unit": "ng·h/mL"}, {"measurement": "half-life", "setting": "[29]", "result": 6.9, "unit": "h"}, {"measurement": "CLint scaled", "setting": "[30]", "result": "< 10", "unit": "mL/min/kg"}]}
